# Experimental data published in PMC7096398, “Oxytocin Receptors Regulate Social Preference in Zebrafish” (Scientific Reports, 2020).
# “Also recorded” adds a separate entry of the source.
# How the values were obtained:
# rodents = conditions: cited from earlier work
# Method: Intraperitoneal injections were conducted using a 1 mL U-100 BD MicroFine™ Insulin Syringe (Becton Dickinson France S.A.S., France). Post injection, animals were placed into their holding tanks for one hour to recover. […] Following this, focal fish were individually placed in the middle of the test tank and left ...
# Oxtr = molecular target: T1, Oxtr (Danio rerio, UniProt E4W699); test: Inositol phosphate accumulation assay, antagonism of 1 μM zVP at Oxtr; type: cell-based, zebrafish; conditions: stimulated with zVP
# T1 construct: host or cells: HEK293
# T1 sequence (E4W699 1-388): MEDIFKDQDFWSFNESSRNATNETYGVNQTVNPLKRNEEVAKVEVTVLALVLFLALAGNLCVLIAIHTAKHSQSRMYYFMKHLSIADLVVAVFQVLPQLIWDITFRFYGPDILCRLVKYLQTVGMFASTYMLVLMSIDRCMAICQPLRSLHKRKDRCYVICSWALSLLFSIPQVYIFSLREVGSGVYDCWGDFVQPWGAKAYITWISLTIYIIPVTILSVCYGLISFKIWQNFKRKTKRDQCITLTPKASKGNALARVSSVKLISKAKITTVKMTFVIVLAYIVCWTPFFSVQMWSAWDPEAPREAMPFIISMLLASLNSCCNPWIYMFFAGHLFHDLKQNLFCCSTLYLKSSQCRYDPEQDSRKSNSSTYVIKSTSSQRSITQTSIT
# Method: (§1) The receptor constructs were ordered from GeneScript and subcloned into a pcDNA3.1/CT-GFP-TOPO vector. The coding sequences of the GenBank entries NM_001199370.1 (oxtr), NM_001199369.1 (oxtrl), NM_001301114.1 (avpr1aa), and NM_001297676.1 (avpr1ab) were used for synthesis. The stop codons were removed, and an additional […] was added to facilitate hybrid protein expression with GFP in frame from the vector. The GCCACC Kozak sequence was inserted before the start codons. After transformation of the plasmid constructs into TOP10 competent cells (Thermo Fisher Scientific), the Maxiprep (Thermo Fisher Scientific) method was used to amplify the plasmids for transfection.
# (§2) The Inositol phosphate accumulation assay was performed according to previous descriptions to measure the potency of different ligands for zebrafish different oxytocin related receptors. Each receptor construct was transfected into HEK293 cells using Lipofectamine 2000 (Thermo Fisher Scientific). Myo2-^3H-inositol (PerkinElmer) at 3 μCi/mL was added the day after transfection. […] Samples were mixed with OptiPhase HiSafe (PerkinElmer Waltham, MA, USA) and ^3H radioactivity was measured with a Tri-Carb 2910TR liquid scintillation counter (PerkinElmer Waltham, MA, USA). […]
# Oxtrl = molecular target: T2, Oxtrl (Danio rerio, UniProt E4W698); test: Inositol phosphate accumulation assay, antagonism of 1 μM zVP at Oxtrl; type: cell-based, zebrafish; conditions: stimulated with zVP
# T2 construct: host or cells: HEK293
# T2 sequence (E4W698 1-382): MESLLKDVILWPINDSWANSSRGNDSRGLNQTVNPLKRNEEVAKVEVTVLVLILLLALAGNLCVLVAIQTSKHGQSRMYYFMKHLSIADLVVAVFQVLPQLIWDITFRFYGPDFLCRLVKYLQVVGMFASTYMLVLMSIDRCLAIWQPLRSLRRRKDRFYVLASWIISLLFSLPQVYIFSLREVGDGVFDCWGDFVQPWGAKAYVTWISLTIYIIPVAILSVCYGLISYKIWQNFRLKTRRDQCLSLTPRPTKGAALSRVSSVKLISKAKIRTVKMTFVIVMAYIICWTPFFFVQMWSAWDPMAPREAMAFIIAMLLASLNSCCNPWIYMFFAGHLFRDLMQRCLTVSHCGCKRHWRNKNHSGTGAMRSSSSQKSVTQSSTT
# Method: as §1, §2
# Avpr1ab = molecular target: T3, Avpr1ab (Danio rerio, UniProt A0A8M1P6E3); test: Inositol phosphate accumulation assay, antagonism of 1 μM zVP at Avpr1ab; type: cell-based, zebrafish; conditions: stimulated with agonist; antagonist up to 1 μM
# T3 sequence (A0A8M1P6E3 1-410): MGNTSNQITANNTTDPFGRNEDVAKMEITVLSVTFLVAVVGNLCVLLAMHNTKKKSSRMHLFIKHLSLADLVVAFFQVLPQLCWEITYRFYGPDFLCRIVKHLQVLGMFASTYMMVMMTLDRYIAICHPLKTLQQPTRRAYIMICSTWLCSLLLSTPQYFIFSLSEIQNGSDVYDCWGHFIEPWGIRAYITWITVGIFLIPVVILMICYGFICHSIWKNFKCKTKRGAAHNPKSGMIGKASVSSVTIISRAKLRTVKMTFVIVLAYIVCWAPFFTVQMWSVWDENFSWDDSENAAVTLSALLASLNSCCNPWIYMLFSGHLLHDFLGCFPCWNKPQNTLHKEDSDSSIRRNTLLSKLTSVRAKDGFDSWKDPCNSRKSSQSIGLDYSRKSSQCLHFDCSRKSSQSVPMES
# Method: as §1, §2
smiles,measurement,setting,value
"Cc1ccccc1N1CCN(S(=O)(=O)C[C@]23CC[C@H](C[C@@H]2NC(=O)[C@@H](N)CCS(C)(=O)=O)C3(C)C)CC1 [L-368,899]",Behavioural effects one hour after treatment,rodents,robust behavioural effects
same,"Antagonism at Oxtr, in words",Oxtr,able to block zVP activation; also recorded: specifically inhibited; also recorded: potently antagonised
same,"Antagonism at Oxtrl, in words",Oxtrl,able to block zVP activation; also recorded: specifically inhibited; also recorded: potently antagonised
same,"Antagonism at Avpr1ab, in words",Avpr1ab,did not block the response and not and without reducing the effect of the peptide agonist
